# How the values were obtained:
# [1] = test system: Rat insulinoma cells of cell line RIN-38; assay: mRNA levels by Northern hybridization in insulinoma cells; assay type: cell-based; settings: peptide 10^-7M; 25 mM glucose
# Method: The cells were maintained in DMEM (Gibco) at a glucose concentration of 4,500 mg/L and supplemented with 10% heat-inactivated fetal bovine serum (Gibco), 100 U/ml of penicillin and 100 µg/ml of streptomycin. Incubations were carried out at 37°C in 95% air:5% CO2. Cells grown in the above manner were washed and resuspended in DMEM (Gibco) containing 0.1% bovine serum albumin and 25 mM glucose. […] In all cases, the concentration of peptides was 10^-7M. Incubations were for six hours.
# Messenger RNAs specific for insulin, actin, or angiotensinogen were identified by Northern hybridization as follows: cellular RNA was extracted from solid tumors and cells by homogenization in guanidine thiocyanate and sedimentation through a cesium chloride cushion. Poly A^+ RNA was isolated by oligo dT cellulose chromatography (Aviv, H., et al., Proc. Natl. Acad. Sci., USA 69:1408-1412 (1972)). Twenty micrograms of total RNA from each sample were fractionated by size on a 1.4% agarose gel after denaturation in glyoxal, followed by electrotransfer to a nylon membrane (Nytran; Schleicher and Schuell). […] The relative amounts of the specific mRNA were determined by microdensitometry.
# [2] = test system: RINS-38 insulinoma cells; assay: Cellular cAMP levels (Table 2); assay type: cell-based, rat; parameters: cAMP: unit not given here; settings: for stimulation of cAMP levels: even at 10^-11M; for cAMP: 10 minutes
# Method: Cells were grown as described in Example 1, in […] culture dishes. Varying amounts of glucagon-like peptides were added to culture wells in triplicate. After permitting incubation for 10 minutes, the total cell media was examined for cAMP, and the concentration of cAMP was determined. Twenty microliters from each culture well was assayed.
# [3] = test system: insulinoma cell line RIN 1046-38; assay: cAMP formation in insulinoma cell line; assay type: cell-based, rat; settings: for effects on the formation of cAMP: 5 nM and 50 pM; for effect on cAMP levels: 0.5 µM
# Method: Cells were incubated for 10 minutes in the presence of 0, 10^-11, 10^-9, or 10^-7M peptides.
# [4] = Biological half-life
# [5] = test system: rat pancreas; assay: Pancreatic perfusion assay of insulinotropic activity (isolated perfused rat pancreas, insulin radioimmunoassay); assay type: in vivo
# Description: The insulinotropic property of a compound may be determined by providing that compound to animal cells, or injecting that compound into animals and monitoring the release of immunoreactive insulin (IRI) into the media or circulatory system of the animal, respectively. The presence of IRI is detected through the use of a radioimmunoassay which can specifically detect insulin. Although any radioimmunoassay capable of detecting the presence of IRI may be employed, It is preferable to use a modification of the assay method of Albano, J.D.M., et al., (Acta Endocrinol. 70:487-509 (1972)). In this modification, a phosphate/albumin buffer with a pH of 7.4 was employed. The incubation was prepared with the consecutive condition of 500 µl of phosphate buffer, 50 µl of perfusate sample or rat insulin standard in perfusate, 100 µl of anti-insulin antiserum (Wellcome Laboratories; 1:40,000 dilution), and 100 µl of [^125I] insulin, giving a total volume of 750 µl in a 10 x 75-mm disposable glass tube. After incubation for 2-3 days at 4°C, free insulin was separated from antibody-bound insulin by charcoal separation. The assay sensitivity was 1-2 µU/ml.
# The insulinotropic property of a compound may also be determined by pancreatic infusion. The in situ isolated perfused rat pancreas preparation was a modification of the method of Penhos, J.C., et al. (Diabetes 18:733-738 (1969)). In accordance with such a method, fasted rats (preferably male Charles River strain albino rats), weighing 350-600 g, are anesthetized with an intraperitoneal injection of Amytal Sodium (Eli Lilly and Co., 160 ng/kg). Renal, adrenal, gastric, and lower colonic blood vessels are ligated. The entire intestine is resected except for about four cm of duodenum and the descending colon and rectum. […] The perfusate is preferably a modified Krebs-Ringer bicarbonate buffer with 4% dextran T70 and 0.2% bovine serum albumin (fraction V), and is preferably bubbled with 95% O2 and 5% CO2. A nonpulsatile flow, four-channel roller-bearing pump (Buchler polystatic, Buchler Instruments Division, Nuclear-Chicago Corp.) is preferably used, and a switch from one perfusate source to another is preferably accomplished by switching a three-way stopcock.
# Isolated rat pancreas was prepared according to the method of Weir, G.C., et al., (J. Clin. Invest. 54:1403-1412 (1974)), and Penkos, J.C., et al. (Diabetes 18:733-738 (1969)). The perfusate contained bicarbonate buffer (pH 7.4) and 120 mg/dl glucose, 4% dextran T-70, and 0.2% bovine serum albumin, and was equilibrated with 95% oxygen and 5% carbon dioxide. The first 20 minutes of each perfusion was an equilibrium period. After this initial period, aliquots of perfusate were removed every 2-4 min for additional 20 min, thus allowing the system to equilibrate for a total of 40 min. The perfusion, including any added insulinotropic peptide, was for 6 min and samples were collected at 1-min intervals. When more than one perfusion was to be performed, the peptide perfusions were followed by equilibration periods of 20 min, during which four samples 5 min apart were collected. […] Again, samples 1 min apart were collected. The entire perfusion time was between 70 and 85 mm.
# In each aliquot of perfusate obtained, insulin was determined by radioimmunoassay.
# [6] = Stability in culture medium (HPLC and radioimmunoassay); assay type: in vitro ADME; settings: 24 hr; conditioned medium containing 01% bovine serum albumin
# Method: To assess the stability of the […] peptide in the experimental conditions, GLP-1 (1-37) was incubated for 24 hr in culture medium alone or in medium supplemented with either 0.1% bovine serum albumin or 10% fetal bovine serum. Aliquots of media were analyzed by high-pressure liquid chromatography and radioimmunoassay.
substance,measurement,setting,value
"GLP-II: glucagon-like peptide 2 (GLP-2) (HADGSFSDEMNTILDNLAARDFINWLIQTKITD; Glucagon-like peptide 2; UniProt P01275 146-178, looked up)",effect on insulin mRNA levels,[1],no effects
same,stimulation of cAMP levels,[2],neither GLP-1 (1-37) nor GLP-II exhibited such activity
GLP-1-(1-36)-NH2: GLP-1 (1-36 des-gly-arg amide); Peninsula Laboratories,effects on the formation of cAMP,[3],negligible
same,effect on cAMP levels,[3],increased cAMP levels
GLP-1 (1-37): GLP-1 polypeptide having all amino acids from 1 (N-terminus) through 37 (C-terminus),biological half-life,[4],30-50 minutes
same,effects on the formation of cAMP,[3],negligible
same,effect on cAMP levels,[3],increased cAMP levels
same,stimulation of cAMP levels,[2],neither GLP-1 (1-37) nor GLP-II exhibited such activity
same,cAMP,[2]; peptide 10^-6 M,170
same,cAMP,[2]; peptide 10^-7 M,120
same,cAMP,[2]; peptide 10^-8 M,160
same,cAMP,[2]; peptide 10^-9 M,100
same,cAMP,[2]; peptide 10^-10 M,90
same,cAMP,[2]; peptide 10^-11 M,90
same,increase in serum insulin concentrations,[5]; 5 x 10^-7M,3.4 fold
same,Insulin Produced,"[5]; 5x10^-7M, 0 minutes (before peptide added)","1,400 picograms/ml"
same,Insulin Produced,"[5]; 5x10^-7M, 1 minute","4,700 picograms/ml"
same,Insulin Produced,"[5]; 5x10^-7M, 2 minutes","2,900 picograms/ml"
same,Insulin Produced,"[5]; 5x10^-7M, 3 minutes","2,200 picograms/ml"
same,increase in serum insulin levels,[5]; 5 x 10^-8M,two-fold
same,Insulin Produced,"[5]; 5x10^-8M, 0 minutes (before peptide added)","3,000 picograms/ml"
same,Insulin Produced,"[5]; 5x10^-8M, 1 minute","6,000 picograms/ml"
same,Insulin Produced,"[5]; 5x10^-8M, 2 minutes","2,000 picograms/ml"
same,Insulin Produced,"[5]; 5x10^-8M, 3 minutes","2,000 picograms/ml"
same,increase in serum insulin levels,[5]; 5 x 10^-10M,20%
same,Insulin Produced,"[5]; 5x10^-10M, 0 minutes (before peptide added)",500 picograms/ml
same,Insulin Produced,"[5]; 5x10^-10M, 1 minute",600 picograms/ml
same,Insulin Produced,"[5]; 5x10^-10M, 2 minutes",640 picograms/ml
same,Insulin Produced,"[5]; 5x10^-10M, 3 minutes",430 picograms/ml
same,effect on insulin levels,[5]; 5 x 10^-11M,without effect
same,Insulin Produced,"[5]; 5x10^-11M, 0 minutes (before peptide added)",340 picograms/ml
same,Insulin Produced,"[5]; 5x10^-11M, 1 minute",180 picograms/ml
same,Insulin Produced,"[5]; 5x10^-11M, 2 minutes",230 picograms/ml
same,Insulin Produced,"[5]; 5x10^-11M, 3 minutes",340 picograms/ml
same,Insulin Produced,"[5]; 5x10^-12M, 0 minutes (before peptide added)",50 picograms/ml
same,Insulin Produced,"[5]; 5x10^-12M, 1 minute",50 picograms/ml
same,Insulin Produced,"[5]; 5x10^-12M, 2 minutes",160 picograms/ml
same,Insulin Produced,"[5]; 5x10^-12M, 3 minutes",50 picograms/ml
same,insulinotropic activity,"[5]; 10^-11 M, five minute perfusion",inactive
same,insulin-releasing activity,[5]; even at concentrations as high as 5 X 10^-7M,no insulin-releasing activity
same,stability: cleavage after incubation,[6],a small peak of GLP-1 (7-37) appeared
